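Growth conditions: 96-well plates. Treatment: test compound, 48 hours, 5 concentrations. Analysis: linear interpolation between bracketing concentrations; unreached endpoints set to highest concentration. GI50 marks 50% less growth. TGI is the concentration that stops growth completely.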
Assays:
Assay in all cases: NCI tumour cell line growth inhibition, 48 h
SK-MEL-28 melanoma = tested on: SK-MEL-28 melanoma
HCT-116 colon = tested on: HCT-116 colon
HCT-15 colon = tested on: HCT-15 colon
UACC-62 melanoma = tested on: UACC-62 melanoma
EKVX NSCLC = tested on: EKVX NSCLC
RXF 393 renal = tested on: RXF 393 renal
RPMI-8226 leukemia = tested on: RPMI-8226 leukemia
SK-MEL-5 melanoma = tested on: SK-MEL-5 melanoma
HL-60(TB) leukemia = tested on: HL-60(TB) leukemia
HOP-62 NSCLC = tested on: HOP-62 NSCLC

Row | SMILES | TGI (SK-MEL-28 melanoma) | TGI (HCT-116 colon) | TGI (HCT-15 colon) | TGI (UACC-62 melanoma) | TGI (EKVX NSCLC) | TGI (RXF 393 renal) | TGI (RPMI-8226 leukemia) | TGI (SK-MEL-5 melanoma) | TGI (HL-60(TB) leukemia) | GI50 (RPMI-8226 leukemia) | GI50 (SK-MEL-28 melanoma) | GI50 (HCT-116 colon) | GI50 (HCT-15 colon) | GI50 (HOP-62 NSCLC) | TGI (HOP-62 NSCLC) | GI50 (SK-MEL-5 melanoma) | GI50 (UACC-62 melanoma) | GI50 (RXF 393 renal) | GI50 (HL-60(TB) leukemia) | GI50 (EKVX NSCLC)
1 | Cc1c(C(=O)/C=C/c2ccc(N(C)C)cc2)c(=O)n(-c2ccccc2)n1C | > 100 µM | > 100 µM | > 100 µM | > 100 µM | > 100 µM | > 100 µM | – | – | – | – | – | – | – | – | – | – | – | – | – | –
2 | O=C(Nc1cccc(O)c1)C(=O)C(C(=O)c1ccc(Cl)c(Cl)c1)C1OC(=O)c2ccccc21 (configuration not stated) | 40.6 µM | 48.2 µM | 35 µM | 31.8 µM | 46.6 µM | 37.2 µM | 54.5 µM | 37.6 µM | 36.5 µM | – | – | – | – | – | – | – | – | – | – | –
3 | COc1cccc(NC(=O)c2sc3nc4c(cc3c2N)C(=O)CCC4)c1 | > 100 µM | > 100 µM | > 100 µM | > 100 µM | – | 1.51 µM | > 100 µM | > 100 µM | > 100 µM | 332 nM | 0.81 µM | 0.0745 µM | 68.6 nM | 0.337 µM | > 100 µM | 64 nM | 74.9 nM | 84 nM | 144 nM | –
4 | CN(C)C=C1C(Cl)=C(C=O)CC(C=O)=C1Cl | 22.6 µM | – | 11.9 µM | 32.5 µM | 54.3 µM | – | 7.2 µM | 23.5 µM | 4.74 µM | – | – | – | – | – | 51.7 µM | – | – | – | – | –
5 | N#CCN/C=C\C(=O)c1ccc(Cl)cc1 | > 100 µM | > 100 µM | – | 49.3 µM | – | > 100 µM | > 100 µM | 38.8 µM | > 100 µM | 22600 nM | 40.1 µM | 29.9 µM | – | 38.6 µM | > 100 µM | 17600 nM | 15700 nM | 40800 nM | 14200 nM | –
6 | CC(C)(C)C1CCC2c3c([nH]c4ccccc34)C3C(=O)N(c4ccccc4)C(=O)C3C2C1 (configuration not stated) | 18.8 µM | – | > 100 µM | 56.7 µM | 55.3 µM | 14.4 µM | 28.4 µM | – | 30.6 µM | – | – | – | – | – | – | – | – | – | – | –
7 | COc1cc(CNc2ccccc2C(=O)N2CCN(C(=O)c3cc(-c4cc(OC)c(OC)c(OC)c4)n4nc(-c5ccccc5)cc4n3)CC2)cc(OC)c1OC | > 100 µM | – | > 100 µM | > 100 µM | > 100 µM | 7.54 µM | – | 3.91 µM | > 100 µM | – | 5.24 µM | – | 4250 nM | 6.04 µM | > 100 µM | 1580 nM | 2370 nM | 2320 nM | 1980 nM | 4.96 µM
8 | C=C[C@@]1(O)CCCC2=C(C(=O)OCC)CC[C@]21C | > 100 µM | – | > 100 µM | – | > 100 µM | > 100 µM | > 100 µM | > 100 µM | > 100 µM | – | – | – | – | – | – | – | – | – | – | –
9 | COc1ccc(C(=O)c2cc3c(N)c(C(=O)Nc4ccc(C)cc4)sc3nc2C)cc1 | > 100 µM | 22.2 µM | > 100 µM | > 100 µM | > 100 µM | 9.38 µM | – | 11.5 µM | 10.3 µM | – | 13.6 µM | 3.19 µM | 1270 nM | 4.43 µM | 31.5 µM | 3140 nM | 12200 nM | 2480 nM | 2780 nM | 5.59 µM
10 | Cc1cc(N2CCSCC2)nc(NC2CCCC(Nc3ccnc4cc(Cl)ccc34)C2)n1 (configuration not stated) | 3.7 µM | – | 2.77 µM | 3.5 µM | 10.8 µM | 2.93 µM | 4.39 µM | 3.11 µM | – | 1640 nM | 1.9 µM | – | 1240 nM | 1.69 µM | 3.38 µM | 1720 nM | 1940 nM | 1410 nM | – | 2.7 µM
11 | O=Cc1ccc(-c2ccc(-c3nc4ccccc4o3)cc2)o1 | > 100 µM | 80.4 µM | 53.4 µM | 63.3 µM | > 100 µM | 54.5 µM | – | 62 µM | > 100 µM | – | 64.5 µM | 27.1 µM | 19700 nM | 49.2 µM | > 100 µM | 22000 nM | 21700 nM | 22600 nM | > 100000 nM | 38.7 µM
12 | C=C(Nc1ccc([N+](=O)[O-])cc1[N+](=O)[O-])c1c/c(=N\NC(N)=S)c2ccccc2o1 | > 100 µM | > 100 µM | > 100 µM | > 100 µM | > 100 µM | > 100 µM | – | > 100 µM | > 100 µM | – | – | – | – | – | > 100 µM | – | – | – | – | –
13 | Cc1cc(Cl)ccc1NC(=O)C(=O)C(C(=O)c1ccc2ccccc2c1)C1OC(=O)c2ccccc21 (configuration not stated) | 54.5 µM | 21.7 µM | 50.9 µM | 24 µM | 75.9 µM | 9.53 µM | 35.5 µM | 26.9 µM | – | – | – | – | – | – | 26.6 µM | – | – | – | – | –
14 | CCCCCCCCCCCCCCCCCC(=O)OCC(COC(=O)CCCN)OC(=O)CCCN (configuration not stated) | 34.4 µM | 40.1 µM | 52.3 µM | 35.3 µM | 53.9 µM | 32.5 µM | – | – | 77 µM | – | – | – | – | – | 33.8 µM | – | – | – | – | –
15 | CCC(CNc1cc(OC)cc2cccnc12)NC1CCCCC1 (configuration not stated) | 64.7 µM | 27.9 µM | > 100 µM | > 100 µM | > 100 µM | > 100 µM | – | 30.6 µM | 41.7 µM | – | 25.6 µM | 10.9 µM | 34900 nM | 66 µM | > 100 µM | 15800 nM | 40100 nM | 71200 nM | 15200 nM | 40.1 µM
16 | CCN(CC)CCCNC(=O)c1c2c(n3ccccc13)C(=O)c1ncccc1C2=O | 8.64 µM | 1.09 µM | 2.54 µM | 2.21 µM | 3.11 µM | 3.13 µM | > 100 µM | 1.24 µM | – | 3210 nM | 2.49 µM | 0.25 µM | 935 nM | 0.586 µM | 2.78 µM | 275 nM | 472 nM | 1160 nM | – | 1.31 µM
17 | Cc1cn2c(/C=N/N=C(N)N)c(-c3cccs3)nc2s1 | – | 2.63 µM | 18.4 µM | 3.12 µM | 21.1 µM | 46.2 µM | 3.5 µM | 2.19 µM | – | 1480 nM | – | 1.35 µM | 4300 nM | – | – | 376 nM | 1640 nM | 10200 nM | – | 8.8 µM
18 | COc1cc(CNC2c3cc4c(cc3C(c3cc(OC)c(OC)c(OC)c3)[C@H]3C(=O)OCC23)OCO4)cc(OC)c1OC (some centres not stated) | – | 0.707 µM | > 100 µM | 0.651 µM | – | – | 79.2 µM | 0.538 µM | 0.515 µM | – | – | – | – | – | 0.631 µM | – | – | – | – | –
